This note sets out measurements from patent US4355043A, “Novel derivatives of 3-aminopropanesulfonic acid having a reinforced activity on membrane” (Les Laboratoires Meram, priority 1979, dated 1982).

Structures are written as SMILES. Where two headings read alike, the source gives them in different places.

One data set deals with erythrocyte membrane. The data set can be described thus: stabilising effect on the erythrocyte membrane (haemolysis in hypotonic medium and with heat). It counts as cell-based, rabbit. An excerpt:
Nature (1970) 225, Mar. 21, 1150-1151.

Data set [1] can be described thus: rectal temperature (hypothermia). It counts as in vivo. The conditions noted are these: rat.
The next data set relates to hypermotility by ethanol. Description: antagonism of the hypermotility caused by ethanol (Cott-Carlsson Engel Lindqvist test). The format is in vivo, mouse. The conditions noted are these: for antagonism of ethanol hypermotility / sedative activity, ranking: mouse, per os, comparison in words. As for the experimental part: The motility of the mice placed in the actimeter is recorded immediately after this injection, every 5 minutes, for 60 minutes. The percentage of variation of the motility of the mice treated with ethanol with respect to the controls receiving water is determined, and of mice treated with the product to be tested and with ethanol with respect to mice receiving only ethanol.

The subject of data set [2] is convulsions caused by pentetrazol. Description: anti-convulsivant action on convulsions caused by pentetrazol. It counts as in vivo, mouse.
Experimental: The compounds according to the invention also present an anti-convulsivant action on the convulsions caused in the mouse by pentetrazol: After administration of pentetrazol, the time of appearance of the convulsions and the time of appearance of death is measured, in the animals which previously received, by the intraperitoneal route, the product to be tested, comparatively to controls receiving only pentetrazol.
Data set [3] relates to muscle fatigued by application of lactic acid. Description: test of the muscle fatigued by application of lactic acid. It counts as in vivo. As to conditions: comparison within the series. An excerpt:
(§1) It is furthermore suitable for the manufacture of aqueous solutions.

For data set [4] the following is noted: mouse, in vivo, ip.
In the next data set the test system is narcosis by ethanol. Description: potentialization of narcosis by ethanol. The format is in vivo. As to conditions: mouse, oral route, comparison within the series.
From the text: as §1

Data set [5] in a line: LD50 toxicity in the mouse (Table I; text). As to conditions: for change of LD50 of the cation against the reference salt: expressed as cation.
A short description of another data set: in vivo. As to conditions: mouse, ip.
The mark [6] stands for this setting: rabbit red cells in vitro, hypotonic medium pH 7.4, 53° C., read-out: ED50, stabilising effect on the erythrocyte membrane.
Setting [7] is: LD50 expressed in Mg++ or Li+, intraperitoneal route.

On to `NCCCS(=O)(=O)O` [Homotaurine, 3-aminopropanesulfonic acid], for which the EC50 in the data set on erythrocyte membrane (Oryctolagus cuniculus, Erythrocyte, pH 7.4, rabbit red cells in vitro, hypotonic medium pH 7.4, 53° C., read-out: ED50, stabilising effect on the erythrocyte membrane) was determined as 15 mM. Moreover, the “effect on rectal temperature” value in [1] (homotaurine by intraperitoneal route) is “does not modify the rectal temperature”.

Take `CC(=O)NCCS(=O)(=O)[O-].[Na+]` [Sodium acetyltaurinate, reference compound]: the “antagonism of the hypermotility by ethanol, result” value (“antagonism … result” for short) with hypermotility by ethanol (400 mg per os) stood at 0.

Consider `CC(=O)NCCS(=O)(=O)O` [Magnesium acetyltaurinate, reference compound], for which the results for the “antagonism … result” value in the data set with hypermotility by ethanol (100 mg per os), in the data set on hypermotility by ethanol (200 mg per os) and in the data set with hypermotility by ethanol (400 mg per os) were “antagonism”, “antagonism” and 0, respectively. The “antagonism of the hypermotility by ethanol, significance” value (from here on “antagonism … significance”) in the data set on hypermotility by ethanol (100 mg per os) and in the data set with hypermotility by ethanol (200 mg per os) was “not significant” throughout. Further, the “time of appearance of the convulsions” value in [2] (1000 mg/kg i.p.) is reported as “significantly (xx)”. Besides, in data set [2] (1000 mg/kg i.p., listed as Mg acetyltaurinate), the “time of appearance of death” value is listed as “significantly (xx)”.

By LD50 is commonly meant the dose at which mortality reaches 50%. Consider `CC(=O)NCCCS(=O)(=O)O` [Potassium acetylhomotaurinate, 3-acetylaminopropanesulfonate of potassium], for which the EC50 in the data set with erythrocyte membrane (setting [6]) is 5 mM. Also, in [2] (315 mg/kg i.p.), the “time of appearance of death” value is reported as “increase, without reaching the level of significance” and the “time of appearance of the convulsions” value is given as “increase, without reaching the level of significance”. Also, the “activity in the test of the muscle fatigued by lactic acid” value in data set [3] is “the most active”. In data set [4], the median lethal dose (LD50) is 4120 mg/kg and the “LD50 expressed as cation” value was 733 mg cation/kg.

Regarding `CC(=O)NCCCS(=O)(=O)O` [Calcium acetylhomotaurinate, calcium N-acetylhomotaurinate], in the data set on erythrocyte membrane (setting [6]), the EC50 was 1 mM. Moreover, the “ranking of hypothermic activity” value in data set [1] was “more active than that of magnesium”. Moreover, the “antagonism … result” value in the data set on hypermotility by ethanol (80 mg per os) is 0; in the data set on hypermotility by ethanol (100 mg per os), “antagonism”; in the data set with hypermotility by ethanol (200 mg per os), “antagonism”; in the data set on hypermotility by ethanol (200 mg per os, listed as calcium acetylhomotaurinate), “significant antagonism”; with hypermotility by ethanol (400 mg per os), “antagonism”; with hypermotility by ethanol (400 mg per os, listed as calcium acetylhomotaurinate) it was “significant antagonism”. Moreover, the “antagonism … result” value with hypermotility by ethanol (800 mg per os) is given as “antagonism”; in the data set with hypermotility by ethanol (800 mg per os, listed as calcium acetylhomotaurinate), “this effect is confirmed at the dose of 800 mg/kg but does not appear to be superior to that recorded at 400 mg”. Besides, the “antagonism … significance” value in the data set with hypermotility by ethanol (100 mg per os) is given as “xxx”; in the data set with hypermotility by ethanol (200 mg per os), “xx”; in the data set with hypermotility by ethanol (800 mg per os), “xx (shorter)”. In the data set on hypermotility by ethanol (listed as Ca acetylhomotaurinate), the “antagonism of ethanol hypermotility / sedative activity, ranking” value is recorded as “greater than that of Mg acetylhomotaurinate”. Further, the “time of appearance of death” value in data set [2] (400 mg/kg i.p.) and in data set [2] (800 mg/kg i.p.) was “significant antagonism (xx)” each time. In addition, the “time of appearance of convulsions” value in data set [2] (800 mg/kg i.p.) is on record as “significant”. The “time of appearance of the convulsions” value in data set [2] (1000 mg/kg i.p.) was “very significant (xxx)”. Also, the “anti-convulsivant activity, comparison” value in data set [2] (mouse, i.p., in words) is “greater than that of Mg acetylhomotaurinate”. For the same compound, the 50% lethal dose (LD50) in data set [4] was found to be 1870 mg/kg. Besides, in [4], the “LD50 expressed as cation” value was determined as 186 mg cation/kg.

Take `CC(=O)NCCCS(=O)(=O)O` [Sodium acetylhomotaurinate, 3-acetylaminopropanesulfonate of sodium]: the EC50 with erythrocyte membrane (setting [6]) was 5 mM. For the same compound, in the data set with hypermotility by ethanol (400 mg per os), the “antagonism … result” value is “slight antagonism which appears at the 50th minute of observation” and the “antagonism … significance” value is on record as “not significant”. Also, the “antagonism … result” value in the data set with hypermotility by ethanol (400 mg per os, listed as Sodium acetyhomotaurinate) is “slight anta-”. Also, the “antagonism of ethanol hypermotility / sedative activity, ranking” value in the data set with hypermotility by ethanol is reported as “least active”. Also, in [2] (292 mg/kg i.p.), the “time of appearance of death” value was “increase, without reaching the level of significance” and the “time of appearance of the convulsions” value was “increase, without reaching the level of significance”. For the same compound, in the data set with narcosis by ethanol, the “potentialization of narcosis by ethanol” value is listed as “top of the series”. Moreover, the median lethal dose (LD50) result in data set [4] is given as “greater than 5 g/kg”.

As to `CC(=O)NCCS(=O)(=O)O` [Calcium acetyltaurinate, reference compound], the “antagonism … result” value in the data set on hypermotility by ethanol (80 mg per os) was 0. In addition, in the data set with hypermotility by ethanol (800 mg per os), the “antagonism … result” value is on record as “antagonism” and the “antagonism … significance” value is given as “x to xx according”. Besides, in [2] (1000 mg/kg i.p., listed as Ca acetyltaurinate), the “time of appearance of death” value is reported as “significantly (x)”. In addition, the “LD50 by oral route” value in data set [5] (oral route, footnote of Table I) stood at 13090 mg/kg.

Turning to `[Cl-].[Cl-].[Mg+2]` [magnesium chloride, reference compound], the “LD50 expressed in Mg++ or Li+” value in data set [5] (mouse, intraperitoneal route) is 94 mg.

For the compound `CC(=O)NCCCS(=O)(=O)O` [Magnesium acetylhomotaurinate, magnesium N-acetylhomotaurinate], the EC50 in the data set on erythrocyte membrane (setting [6]) is 10 mM. Also, the “antagonism … result” value in the data set on hypermotility by ethanol (80 mg per os) is “antagonism”; in the data set with hypermotility by ethanol (100 mg per os) it was “antagonism”; with hypermotility by ethanol (200 mg per os) it was “antagonism”; with hypermotility by ethanol (200 mg per os, listed as magnesium acetylhomotaurinate) it was “slightly less than that of the calcium salt”; with hypermotility by ethanol (400 mg per os), “antagonism”; in the data set with hypermotility by ethanol (400 mg per os, listed as magnesium acetylhomotaurinate), “slightly less than that of the calcium salt”. In addition, the “antagonism … significance” value in the data set with hypermotility by ethanol (100 mg per os) is given as “not significant”. Besides, the “time of appearance of convulsions” value in data set [2] (800 mg/kg i.p.) is recorded as “significant”. The LD50 in “in vivo” (LD50, male mouse) turned out to be 2570 mg/kg; in “in vivo” (setting [7]), 161 mg/kg. The “change of LD50 of the cation against the reference salt” value in [5] (mouse, intraperitoneal route) is given as “significantly increased”.

In the case of `CC(=O)NCCCS(=O)(=O)[O-].[Li+]`, in the data set with erythrocyte membrane (Oryctolagus cuniculus, Erythrocyte, pH 7.4, read-out: ED50, stabilising effect on the erythrocyte membrane), the EC50 turned out to be 10 mM. The LD50 worked out at 4260 mg/kg in “in vivo” (LD50, male mouse) and 157 mg/kg in the data set “in vivo” (setting [7]). In data set [5] (mouse, intraperitoneal route), the “change of LD50 of the cation against the reference salt” value is recorded as “significantly increased”.
